Series [1] in a line: Solubility in 50% ethanol (footnote to Table IV). In kind it is physicochemical.
Series [2] concerns terminal portion of the guinea pig ileum. Nature of the series: Antagonistic activity against substance P on the terminal portion of the guinea pig ileum. In kind it is cell-based. To be noted: analog at 10^-4 (concentration unit not given). The protocol: The antagonistic activities of the analogs were evaluated using the terminal portion of the guinea pig ileum, as described by Yamaguchi et al. [Acta Chem. Scand. B33, 63 (1979)]. The biological assay data are in Table IV.
The sequence of substance P (SP) is expressed in the top of Table IV. The antagonistic activity is defined as the fold-increase in the concentration of SP in the presence of the analog to give 50% of the maximal response which is elicited by SP alone. The sequences of the analogs which were designed and synthesized are in Table IV. The eleven amino acids of SP are spaced across the top line to facilitate visual comparison of the amino acids in SP with those in the analogs. For example, analog I is also spaced across the page to show the sequence relationship to SP. On this basis, analog I is H-Arg^1,Pro^2,Lys^3,Pro^4,D-Phe^5,Gln^6,D-Trp^7,Phe^8 D-Trp^9,Leu^10,Leu^11 -NH2, but on the basis of conventional peptide nomenclature, analog I is expressed as [D-Phe^5,D-Trp^7,D-Trp^9,Leu^11 ]-SP5-11.

For series [3] the following is noted: SP = 1; cited from earlier work.

Where “and” joins values, the source holds several entries; their conditions need not be identical. Equal entries are not always repeated. Non-standard residues stand in square brackets, D forms with d. Residues, ends and D or L forms follow the SMILES beside them. pGlu = O=C1CC[C@@H](C(=O)O)N1

This is an account of results in patent publication US4481139A, “Peptide antagonists of substance P” (Board of Regents, The University of Texas System, priority 1983, dated 1984).

For the compound “[D-Phe^5,D-Trp^7,D-Trp^9,Leu^11 ]-SP5-11 [Analog I]”, the Solubility entry in series [1] is “difficulty soluble in 50% ethanol”. Also, the “Fold increase in conc. of SP in the presence of the analog to give 50% of the maximal response elicited by SP alone” value in series [2] was > 200 fold and 200 fold.
“Glp-Gln-Phe-Phe-Gly-Leu-Met-NH2 ([pGlu]QFFGLM-NH2; SMILES CSCC[C@H](NC(=O)[C@H](CC(C)C)NC(=O)CNC(=O)[C@H](Cc1ccccc1)NC(=O)[C@H](Cc1ccccc1)NC(=O)[C@H](CCC(N)=O)NC(=O)[C@@H]1CCC(=O)N1)C(N)=O) [truncated heptapeptide analog of SP from Yanaihara et al]”: in series [3], the “Relative activity in comparison with SP as 1” value is recorded as 1.7.
With `CC(C)C[C@H](NC(=O)[C@@H](Cc1c[nH]c2ccccc12)NC(=O)[C@H](Cc1ccccc1)NC(=O)[C@@H](Cc1c[nH]c2ccccc12)NC(=O)[C@H](CCC(N)=O)NC(=O)[C@@H]1CCC(=O)N1)C(=O)N[C@H](C(N)=O)[C@@H](C)O` [Analog III, [Glp^5,D-Trp^7,D-Trp^9,Thr^11]--SP5-11] ([pGlu]Q[dW]F[dW]LT-NH2), in series [2], the “Fold increase in conc. of SP in the presence of the analog to give 50% of the maximal response elicited by SP alone” value is 2 fold.
Consider `CC(C)C[C@H](NC(=O)[C@H](CC(C)C)NC(=O)[C@@H](Cc1c[nH]c2ccccc12)NC(=O)[C@H](Cc1ccccc1)NC(=O)[C@@H](Cc1c[nH]c2ccccc12)NC(=O)[C@H](CCC(N)=O)NC(=O)[C@@H]1CCC(=O)N1)C(N)=O` [Analog V, [Glp^5,D-Trp^7,D-Trp^9,Leu^11]--SP5-11] ([pGlu]Q[dW]F[dW]LL-NH2), for which, in series [2], the “Fold increase in conc. of SP in the presence of the analog to give 50% of the maximal response elicited by SP alone” value was determined as 17 fold.
